Measurements published in patent US12697325B2 (TENNOR THERAPEUTICS (SUZHOU) LIMITED, priority 2021, dated 2026).
Where two headings read alike, the source gives them in different places.

Columns and labels:
[1] = system: clinical strains of Acinetobacter baumannii; experiment: Minimum inhibitory concentration (CLSI M07), Example 1, clinical strains; format: cell-based; settings: combination MIC = sum of the concentrations of the two compounds
Method: (§1) The minimum inhibitory concentration (MIC) was determined in accordance with the requirements of the Clinical and Laboratory Standards Institute (CLSI) M07 (for aerobic bacteria).
3.1 The compounds were diluted with water up to 100 times of the highest concentration tested.
The dilution steps are as follows: first dilute the compounds or antibiotics to 100 times of the highest final concentration tested, and then:
A 50 μL of sterile water and 50 μL of avibactam sodium mother liquid were added into the A row of the second 96-well plate, and 50 μL of water was added into each of the remaining wells. A 50 μL of liquid was pipetted from the A row and added into the B row; after being pipetted up and down to even, 50 μL of the solution was pipetted and added to the C row, and diluted in a 2-fold gradient in turn for a total of 6 times and then, 50 μL was removed from each well of the G row to obtain the compound solution diluted to a 2-fold gradient and then 4 μL was transferred to a 96-well test plate.
Aerobic bacteria: the strains were inoculated on MHA one day in advance and incubated overnight at 37° C. On the day of the assay, 5-6 single colonies were picked and suspended evenly in saline, and the bacterial concentration was adjusted to the turbidity of 0.5 McFarland standard (concentration is about 1×10^8 CFU/mL). The bacterial suspension was diluted 200 times with the corresponding liquid culture medium (Table 1), i.e., at a bacterial concentration of ~5×10^5 CFU/ml, then 192 μL was transferred to a 96-well round bottom plate to obtain the test plate. Then, the 96-well round bottom plate obtained above was placed into an incubator at 37° C. and 85% humidity to incubate for 20 h.

[2] = system: Acinetobacter baumannii strains; experiment: Minimum inhibitory concentration (CLSI M07), Example 2, 20 strains; format: cell-based; settings: for MIC: read-out: MIC
Method: as §1
3.1 The compounds were diluted with DMSO up to 100 times of the highest concentration tested.
The steps of manual dilution are as follows (example): firstly, the compound or antibiotic was diluted to 100 times of the maximum final concentration tested, then 60 μL of compound mother liquor was added to the first column of the 96-well plate, and 30 μL of DMSO was added to each well in the second to the 12th column; 30 μL of the liquid was transferred from the first column to the second column. After being pipetted up and down to even, 30 μL was transferred to the third column, and was diluted in sequence at a 2-fold gradient for a total of 10 times; then 30 μL was removed from each well in the 11th column, then a compound solution diluted at 2-fold gradient was obtained and 1 μL was transferred to a 96-well test plate.
Aerobic bacteria: the strains were inoculated on MHA one day in advance and incubated overnight at 37° C. On the day of the assay, 5-6 single colonies were picked and suspended evenly in saline, and the bacterial concentration was adjusted to the turbidity of 0.5 McFarland standard (concentration is about 1×10^8 CFU/mL). The bacterial suspension was diluted at 200-fold with the corresponding liquid culture medium (Table 1), i.e., the bacterial concentration was ~5×10^5 CFU/ml, and then 100 μL of the liquid was transferred to a 96-well round bottom plate (the 96-well plate with compound prepared in 4.2, Echo method) to obtain the test plate. If the compound was manually diluted, then 99 μL of the solution was transferred into a 96-well round bottom plate. The 96-well round bottom plate obtained above was placed into an incubator at 37° C. and 85% humidity to incubate for 20 h.

[3] = Pharmacokinetics in plasma and bronchoalveolar lavage fluid of female CD-1 mice; format: in vivo; settings: mouse, female CD-1 mice
Method: An appropriate amount of the test drug was accurately weighed and mixed with the appropriate volume of vehicle (5% DMSO+0.5% Tween 80 in normal saline) to obtain a clear solution for the test in Table 9. The formulation solution for injection was prepared to sterile filtration through a 0.22 μm filter prior to administration. The mice were dosed with the drug within 30 min after the formulated solution for injection was prepared. A 1.5 mL of the formulation solution for injection was transferred into a polypropylene microcentrifuge tube for dose verification by LC/UV or LC-MS/MS.
All blood samples were transferred to pre-frozen EDTA-K2 tubes and placed on wet ice until centrifugation. […]
Plasma: approximately 100 μL of blood sample was transferred into pre-cooled commercial EDTA-K2 tubes and placed on wet ice until centrifugation. After the blood samples were centrifuged at approximately 4° C. and 3, 200 g for 10 min, plasma was collected and transferred to pre-labeled 96-well plates or polypropylene tubes, flash frozen on dry ice, and stored at ≤−60° C. until the analysis by LC-MS/MS.
Serum: approximately 100 μL of blood sample was transferred into a tube without anticoagulant and placed on wet ice for approximately 30 min and centrifuged at 4° C. and 3,000 g for 10 min, and the serum was collected and transferred into pre-labeled PP tubes placed on wet ice. After the completion of all the collections, serum samples were stored at −60° C. until being sent to the animal experimental team to determine urea concentration.
Bronchoalveolar lavage fluid (BALF): pre-cooled tracheo-alveolar lavage fluid was injected into the trachea or predefined bronchi. After a full expansion of the lung tissue, the lavage fluid was slowly drawn out with a syringe 30 s later. The lung was lavaged three times. During the last lavage, the lung tissue was gently squeezed to restore the fluid. To prevent contamination of other lung tissues, the corresponding bronchi were ligated. Both lungs of the mice were perfused with 0.8 mL.
[…] Approximately 200 μL of the BALF samples were transferred into a polypropylene tube, rapidly frozen on dry ice, maintained at ≤−60° C., and sent to the animal experimental team to determine urea concentration. The remaining BALF samples (approximately 600 μL) were rapidly frozen on dry ice and maintained at ≤−60° C. until being submitted for drug concentration analysis by LC-MS/MS.

- MIC50 ([1]; Acinetobacter baumannii, read-out: MIC50): 32 µg/mL
- MIC90 ([1]; Acinetobacter baumannii, read-out: MIC90): 32 µg/mL
- MIC range [1]: 8 to 32 µg/mL
- MIC ([2]; Acinetobacter baumannii, ATCC17978, strain ATCC 17978): 8 µg/mL
- MIC ([2]; Acinetobacter baumannii, ATCC19606, strain ATCC 19606): 2 µg/mL
- MIC ([2]; Acinetobacter baumannii, ATCCBAA1605, strain ATCC-BAA-1605): 32 µg/mL
- MIC ([2]; Acinetobacter baumannii, ATCCBAA1789, strain ATCC-BAA-1789): 4 µg/mL
- MIC ([2]; Acinetobacter baumannii, ATCCBAA1790, strain ATCC-BAA-1790): 16 µg/mL
- MIC ([2]; Acinetobacter baumannii, ATCCBAA1791, strain ATCC-BAA-1791): 8 µg/mL
- MIC ([2]; Acinetobacter baumannii, ATCCBAA1792, strain ATCC-BAA-1792): 32 µg/mL
- MIC ([2]; Acinetobacter baumannii, ATCCBAA1793, strain ATCC-BAA-1793): 32 µg/mL
- MIC ([2]; Acinetobacter baumannii, ATCCBAA1794, strain ATCC-BAA-1794): 8 µg/mL
- MIC ([2]; Acinetobacter baumannii, ATCCBAA1795, strain ATCC-BAA-1795): 64 µg/mL
- MIC ([2]; Acinetobacter baumannii, ATCCBAA1796, strain ATCC-BAA-1796): 16 µg/mL
- MIC ([2]; Acinetobacter baumannii, ATCCBAA1797, strain ATCC-BAA-1797): 8 µg/mL
- MIC ([2]; Acinetobacter baumannii, ATCCBAA1798, strain ATCC-BAA-1798): 16 µg/mL
- MIC ([2]; Acinetobacter baumannii, ATCCBAA1799, strain ATCC-BAA-1799): 64 µg/mL
- MIC ([2]; Acinetobacter baumannii, ATCCBAA1800, strain ATCC-BAA-1800): 32 µg/mL
- MIC ([2]; Acinetobacter baumannii, strain ARLG-1791): 32 µg/mL
- MIC ([2]; Acinetobacter baumannii, strain ARLG-1809): 32 µg/mL
- MIC ([2]; Acinetobacter baumannii, strain ARLG-1852): 16 µg/mL
- MIC ([2]; Acinetobacter baumannii, strain ARLG-1853): 32 µg/mL
- MIC ([2]; Acinetobacter baumannii, strain ARLG-1881): 128 µg/mL
- MIC50 ([2]; Acinetobacter baumannii, Example 2, 20 strains, read-out: MIC50): 32 µg/mL
- MIC90 ([2]; Acinetobacter baumannii, Example 2, 20 strains, read-out: MIC90): 64 µg/mL
- MIC range ([2]; Example 2, 20 strains): 2 to 128 µg/mL
- MIC of this strain BAA-1795 (component in the combination) ([2]; strain BAA-1795): 8 µg/mL
- MIC of the strain BAA-1795 (component in the combination) ([2]; strain BAA-1795, sulbactam/avibactam 4:1, concentration of the named component): 8 µg/mL
- Kp ([3]; BALF/plasma, intravenous, 150 mg/kg, BALF column, read-out: AUC Ratio): 0.0248
- AUC(0-t) ([3]; bronchoalveolar lavage fluid (BALF), intravenous dripping 150 mg/kg, BALF, read-out: AUC0-last, BALF): 1310 ng·h/mL
- Cmax ([3]; bronchoalveolar lavage fluid (BALF), intravenous dripping 150 mg/kg, BALF, read-out: Cmax, mean BALF concentration): 617 ng/mL
- MRT last ([3]; bronchoalveolar lavage fluid (BALF), intravenous dripping 150 mg/kg, BALF, read-out: MRT0-last, BALF): 103 min
- half-life ([3]; bronchoalveolar lavage fluid (BALF), intravenous dripping 150 mg/kg, BALF, read-out: T1/2, BALF (converted)): 43.5 min
- Tmax ([3]; bronchoalveolar lavage fluid (BALF), intravenous dripping 150 mg/kg, BALF, read-out: Tmax, BALF): 180 min
- clearance ([3]; intravenous dripping 150 mg/kg, plasma): 47.2 mL/min/kg
- AUC(0-t) ([3]; intravenous dripping 150 mg/kg, plasma, read-out: AUC0-last, plasma): 52900 ng·h/mL
- Cmax ([3]; intravenous dripping 150 mg/kg, plasma, read-out: Cmax, mean plasma concentration): 19600 ng/mL
- MRT last ([3]; intravenous dripping 150 mg/kg, plasma, read-out: MRT0-last, plasma): 26.4 min
- half-life ([3]; intravenous dripping 150 mg/kg, plasma, read-out: T1/2, plasma (converted)): 52.4 min
- Tmax ([3]; intravenous dripping 150 mg/kg, plasma, read-out: Tmax, plasma): 60 min
- Vd ([3]; intravenous dripping 150 mg/kg, plasma, read-out: Vdss): 1.26 L/kg
SMILES: CC1(C)[C@H](C(=O)[O][Na+])N2C(=O)C[C@H]2S1(=O)=O [Sulbactam sodium, sulbactam sodium]
